Patent publication US8476221B2, “Methods and compositions for the treatment of metabolic disorders” (Halimed Pharmaceuticals, Inc., priority 2011, dated 2013)
Non-standard residues stand in square brackets, D forms with d. Residues, ends and D or L forms follow the SMILES beside them. *: point of attachment. Tle = CC(C)(C)[C@H](N)C(=O)O; X1 = CCNCCCC(=O)*

What was measured:
[1] = Toxicity study in monkeys, serum chemistry (cholesterol, triglycerides, liver enzymes); type: in vivo
Procedure: A study was conducted to evaluate toxicity in monkeys with HPI-363 at doses of 0.05 to 5 mg/kg. The compound was administered as a slow IV push over 20 to 30 seconds. Six animals (3 males and 3 females) approximately 2 years old and weighing 2.1-2.5 kilograms were dosed once daily for 14 days. Blood chemistry was collected on Days 1-15. […] A reduction of 27%-40% in levels of cholesterol and triglycerides respectively from pre-dose was observed over 15 days. The lipid-lowering effect occurred within a 12 hr-period.

[2] = Body weight and food intake in Sprague-Dawley and obese Zucker (fa/fa) rats; type: in vivo; details: for Avg. Wt. Change (g) Days 1-10 / Food Consumption. (g) Days 1-10: 1 mg/kg IV daily Days 1-10; for Avg. Wt. Change (g) Days 11-20 / Food Consumption. (g) Days 11-20: saline Days 11-20 after 1 mg/kg IV daily Days 1-10
Procedure: Male Sprague-Dawley (SD, Harlan Laboratories) rats (210-220 g at initiation of experiments) and genetically obese Zucker (fa/fa) (ZF, Harlan Laboratories) rats (210-220 g at initiation of experiments) were housed individually under a 12 h:12 h light:dark schedule (lights on at 7:00 AM). All compound administration, animal and food weighing were performed between noon and 1 PM (during the light phase of the animals' circadian illumination schedule). Each rat was provided standard rat chow and water ad libitum throughout the experiments.
Each animal received either 1 mg/kg HPI-363 dissolved in saline IV (Treated) or saline (Vehicle or Untreated) for ten consecutive days followed by daily injections of saline for ten additional days. At the start of the experiment, each animal was weighed and single-housed with rat chow and water, with subsequent weighing occurring at 24 hr increments for 20 days. For food intake, 100 g of rat chow was placed in each animal's hopper and leftover chow in the hopper was collected and weighed every 24 hr for 20 days at the time of animal weighing. Chow was then replenished to 100 g each day. As a monitor of the general health of the animals, rats were observed twice daily.

[3] = target: NT1 receptor (Homo sapiens, UniProt P30989); details: receptor binding studies; cited from earlier work
[4] = target: NT2 receptor (Homo sapiens, UniProt O95665); details: receptor binding studies; cited from earlier work
Chain of NT2 receptor (O95665 whole entry): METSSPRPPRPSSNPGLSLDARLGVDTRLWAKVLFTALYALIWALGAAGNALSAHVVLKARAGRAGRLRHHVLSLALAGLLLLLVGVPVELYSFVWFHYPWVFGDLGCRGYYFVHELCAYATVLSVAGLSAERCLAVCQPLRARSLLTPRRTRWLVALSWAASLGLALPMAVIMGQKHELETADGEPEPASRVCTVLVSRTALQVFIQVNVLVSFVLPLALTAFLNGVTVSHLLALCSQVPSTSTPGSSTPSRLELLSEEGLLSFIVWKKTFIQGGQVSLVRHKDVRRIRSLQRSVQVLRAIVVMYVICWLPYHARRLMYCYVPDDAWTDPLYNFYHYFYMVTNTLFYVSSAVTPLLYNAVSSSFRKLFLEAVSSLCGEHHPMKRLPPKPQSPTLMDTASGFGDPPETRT

Chain of NT1 receptor (P30989 whole entry): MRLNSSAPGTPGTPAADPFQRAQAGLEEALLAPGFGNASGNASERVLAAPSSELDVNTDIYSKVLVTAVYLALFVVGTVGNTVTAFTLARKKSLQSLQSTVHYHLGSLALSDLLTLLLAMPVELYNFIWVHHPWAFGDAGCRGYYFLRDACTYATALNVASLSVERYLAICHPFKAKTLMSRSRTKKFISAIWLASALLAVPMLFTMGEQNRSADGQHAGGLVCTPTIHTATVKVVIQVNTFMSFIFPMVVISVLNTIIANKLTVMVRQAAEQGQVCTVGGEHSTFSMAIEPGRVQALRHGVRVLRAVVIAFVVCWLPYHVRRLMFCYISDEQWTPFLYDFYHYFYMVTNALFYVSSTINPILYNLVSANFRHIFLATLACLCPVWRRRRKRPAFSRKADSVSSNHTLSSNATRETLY

Compound	Time in which the lipid-lowering effect occurred ([1]; 0.05 to 5 mg/kg IV) [h]	Effect on cholesterol and triglycerides (serum chemistry) ([1]; 0.05 to 5 mg/kg IV once daily for 14 days)	Liver enzymes ([1]; 0.05 to 5 mg/kg IV once daily for 14 days, normalized within the 15 days of the study)	Reduction in levels of cholesterol from pre-dose ([1]; 0.05 to 5 mg/kg slow IV push once daily for 14 days, over 15 days) [%]	General health, observed twice daily ([2]; SD and ZF rats, 20 days)	Avg. Wt. Change (g) Days 1-10 ([2]; Sprague-Dawley (SD) rats) [g]	Food Consumption. (g) Days 1-10 ([2]; Sprague-Dawley (SD) rats) [g]	Avg. Wt. Change (g) Days 11-20 ([2]; Sprague-Dawley (SD) rats) [g]	Food Consumption. (g) Days 11-20 ([2]; Sprague-Dawley (SD) rats) [g]	Avg. Wt. Change (g) Days 1-10 ([2]; Zucker fa/fa (ZF) rats) [g]	Food Consumption. (g) Days 1-10 ([2]; Zucker fa/fa (ZF) rats) [g]	Avg. Wt. Change (g) Days 11-20 ([2]; Zucker fa/fa (ZF) rats) [g]	Food Consumption. (g) Days 11-20 ([2]; Zucker fa/fa (ZF) rats) [g]	Food intake ([2]; both SD and ZF rats, 1 mg/kg IV Days 1-10)	Weight gain ([2]; both SD and ZF rats, 1 mg/kg IV Days 1-10, maintained after cessation (Days 11-20))	Affinity for the NT1 receptor [3]	Affinity for the NT2 receptor [4]
CCNCCCC(=O)N[C@@H](CCCNC(=N)N)C(=O)N1CCC[C@H]1C(=O)N[C@@H](Cc1c[nH]c2ccccc12)C(=O)N[C@H](C(=O)N[C@@H](CC(C)C)C(=O)O)C(C)(C)C [HPI-363] (X1-RPW[Tle]L-OH)	≤ 12	dose dependent effect	transient rise	27	No deviations from normal affect	17.4	148.5	40.0	222.0	54.6	252.7	88.5	402.0	decreased food intake	inhibition of weight gain		
Lys-(psiCH2NH)-Lys-Pro-Trp-Ter-Leu-Leu-OEt [PD149163]																has affinity	no detectable affinity
